Source: patent US7078434B1, “Use of Ginkgo extract” (Societe de Conseils de Recherches et d'Applications …, priority 1999, dated 2006)
“Also recorded” adds a separate entry of the source.

Tests used:
MDA-231 cells [1] = test: BrdU cell proliferation assay, MDA-231
Method: 4 h prior to the end of incubation, bromodeoxyuridine (BrdU) was added to each well. Incorporation of BrdU was measured at 450 nm (reference=700 nm). Data points represent the mean±S.D. of four independent experiments carried out in quadruplicate.
4 h prior to the end of incubation, bromodeoxyuridine (BrdU) was added to each well. Incorporation of BrdU was measured at 450 nm (reference=700 nm). Data points represent the mean±S.D. of two independent experiments carried out in quadruplicate.
MDA-231 cells grown in 96-well plates were washed with PBS and cultured in media supplemented with 10% FBS in the presence or absence of either 2 μg/ml or 20 μg/ml GKB for 48 hours. 4 h prior to the end of incubation, bromodeoxyuridine (BrdU) was added to each well. Incorporation of BrdU was measured at 450 nm (reference=700 nm). Data points represent the mean±S.D. of two independent experiments carried out in quadruplicate.
Cell lines were cultured on polystyrene culture dishes (Corning) and grown in Dulbecco's modified Eagle medium (DMEM) supplemented with 10% fetal bovine serum (FBS). […] BrdU Cell Proliferation Assays. MDA-231 cells were plated on 96-well plates (Corning, Corning, N.J.) at a concentration of approximately 10,000 cells/well (24 h incubation) or approximately 5,000 cells/well (48 h incubation) in DMEM supplemented with 0.1% FBS. […] Differences in cell proliferation were analyzed by measuring the amount of 5-bromo-2′deoxyuridine (BrdU) incorporation determined by the BrdU ELISA (Boehringer Mannheim, Indianapolis, Ind.). Incorporation of BrdU was measured at 450 nm (reference at 690 nm).

MCF-7 cells = test: BrdU cell proliferation assay, MCF-7; assay type: cell-based, human; settings: 48 hours, 20 or 200 μg/ml EGB 761® or 2 or 20 μg/ml GKB; compared with MDA-231
Description: (§1) Cell Culture and Treatments. […] Radioligand Binding Assays. […] RNA (Northern) Analysis. […] Nucleic Acid Arrays. […] BrdU Cell Proliferation Assays. […] Analysis of oxidative stress. […] Biological Evaluation In Vivo. […] Immunocytochemistry of MDA-231 tumors. […] Statistical Analysis. […] (FIG. 5).

MDA-231 xenografts = test: MDA-231 human breast cancer xenograft model in nude mice
Method: After the end of the treatment the animals were kept for 30 more days and then the animals were sacrificed on day 60. Data shown are means±S.E.M. (n=10).
Biological Evaluation In Vivo. […] Twice weekly tumor sizes and body weights were recorded for all animals for the 30 days of treatment as well for 30 days after the end of the treatment. At that time the animals were sacrificed and the tumors were removed and processed for immunohistochemistry. Animal care was in accordance with institutional guidelines. […] Statistical Analysis.

[2] = tested on: peripheral-type benzodiazepine receptor (PBR); test: PBR ligand binding capacity of treated MDA-231 cells ([3H]PK 11195 saturation binding, Scatchard analysis); assay type: cell-based, human; settings: % of control values
Description: as §1

PBR = test: Immunocytochemistry of MDA-231 tumors with anti-PBR antiserum; assay type: in vivo, human; settings: 50 mg/kg EGB 761® per os or 1 mg/kg GKB ip
Method: Formalin embedded sections of MDA-231 xenografts were immunostained with an anti-PBR antiserum at 1:500 dilution as described in the Materials and Methods section. MDA-231 tumors were obtained from animals treated with vehicle (A–D), 50 mg/kg EGB 761® per os (E, G), or 1 mg/kg GKB ip (F, H). […] Arrowheads indicate nuclei. Magnification is ×75 for A, B, C, E, F, G, and H and ×150 for […].
as §1

[3] = tested on: MDA-231 cell free radical production; test: Analysis of oxidative stress (2,7-DCF fluorescent probe) in MDA-231 cells; assay type: cell-based, human
Description: as §1

PBR mRNA = test: RNA (Northern) blot analysis of PBR mRNA in MDA-231 cells; assay type: cell-based, human; settings: 48 hours, 20 or 200 μg/ml EGB 761® or 2 or 20 μg/ml GKB
Description: as §1

MDA-231 cells [4] = test: Additional cytotoxicity assays; assay type: cell-based; settings: human
Description: It is of interest to note that even in the presence of high concentrations of either EGB 761® or GKB, PBR levels and rates of cell proliferation could not be reduced below 30% of normal values. […] It should be also noted that even at the highest concentrations used, neither EGB 761® nor GKB were toxic for the cells, because cell proliferation recovered upon removal of the compounds.

C[C@@H]1C(=O)O[C@H]2[C@H](O)C34[C@H]5C[C@@H](C(C)(C)C)C36C(O)C(=O)O[C@H]6O[C@@]4(C(=O)O5)[C@@]12O (some centres unmarked) [GKB, ginkgolide B]
MDA-231 cell proliferation (BrdU incorporation) (MDA-231 cells [1]; 10% FBS, EGB 761® up to 96 h, GKB 2 or 20 μg/ml 48 hours): significantly altered; also recorded: inhibited | toxicity for the cells (recovery of proliferation upon removal) (MDA-231 cells [1]; highest concentrations used): cytostatic and not cytotoxic | MCF-7 cell proliferation (BrdU incorporation) (MCF-7 cells): altered to a lesser degree | decrease in tumor size (MDA-231 xenografts; 1 mg/kg ip once a day for 30 days, measured a month after the end of the treatment, p=0.043): 32% | animal body weight (MDA-231 xenografts; 30 days treatment, 50 mg/kg EGB 761® or 1 mg/kg GKB, data not shown): did not affect | decrease of PBR levels (PBR ligand binding capacity, Bmax) [2]: 66% | nuclear PBR expression in cells found in the middle of the tumor (PBR): reduced | nuclear PBR expression in the cells at the edge of the tumors (PBR; cytosolic immunostaining could be seen): eliminated | effect on free radical / reactive oxygen species production [3]: absence of any significant decrease | PBR mRNA levels (PBR mRNA): reduced | cell death (MDA-231 cells [4]): neither EGB 761® nor GKB induced any significant cell death
